Laboratory results reported in ChEMBL document CHEMBL4190382, “Targeting lysine specific demethylase 4A (KDM4A) tandem TUDOR domain - A fragment based approach” (Bioorg Med Chem Lett, 2018).
Changes are numbered by the printed parent chain. The source made the active and inactive calls. The rule behind the calls is not given here.

Legend:
[1] = molecular target: T1, E3 ubiquitin-protein ligase UHRF1 (Homo sapiens, UniProt Q96T88); assay: Binding affinity to 6His-tagged and human UHRF1 tandem TUDOR domain (126 to 285 residues) expressed in Escherichia coli BL21(DE3)-T1R by ITC method
T1 sequence (Q96T88 whole entry): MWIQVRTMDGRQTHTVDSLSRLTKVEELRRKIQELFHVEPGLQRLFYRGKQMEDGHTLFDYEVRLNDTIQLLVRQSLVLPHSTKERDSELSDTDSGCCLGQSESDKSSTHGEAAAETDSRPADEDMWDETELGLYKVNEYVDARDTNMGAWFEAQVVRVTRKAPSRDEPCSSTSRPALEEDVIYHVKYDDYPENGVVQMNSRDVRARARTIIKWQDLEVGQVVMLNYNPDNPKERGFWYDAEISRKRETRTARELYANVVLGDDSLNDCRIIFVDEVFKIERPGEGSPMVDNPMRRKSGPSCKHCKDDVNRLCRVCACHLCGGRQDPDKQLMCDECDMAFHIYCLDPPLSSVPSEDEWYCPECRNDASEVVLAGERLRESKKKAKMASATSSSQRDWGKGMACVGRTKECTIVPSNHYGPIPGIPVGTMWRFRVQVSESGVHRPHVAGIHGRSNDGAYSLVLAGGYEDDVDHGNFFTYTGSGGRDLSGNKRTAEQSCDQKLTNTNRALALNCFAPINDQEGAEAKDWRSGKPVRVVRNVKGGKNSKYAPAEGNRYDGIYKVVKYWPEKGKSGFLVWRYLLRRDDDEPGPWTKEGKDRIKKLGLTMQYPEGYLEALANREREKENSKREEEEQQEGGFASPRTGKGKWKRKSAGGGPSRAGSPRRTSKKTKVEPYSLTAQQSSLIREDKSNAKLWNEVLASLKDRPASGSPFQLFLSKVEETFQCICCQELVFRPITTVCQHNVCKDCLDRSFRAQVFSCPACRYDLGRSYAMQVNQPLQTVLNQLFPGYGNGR

[2] = tested on: T2, Lysine-specific demethylase 4A (Homo sapiens), O75164 [W967A]; assay: Binding affinity to thrombin cleavable N-terminal 6His tagged and 13C-IVLM labeled human KDM4A tandem TUDOR domain (897 to 1011 residues) W967A mutant expressed in Escherichia coli BL21(DE3)-T1R by ITC method
T2 sequence (whole entry): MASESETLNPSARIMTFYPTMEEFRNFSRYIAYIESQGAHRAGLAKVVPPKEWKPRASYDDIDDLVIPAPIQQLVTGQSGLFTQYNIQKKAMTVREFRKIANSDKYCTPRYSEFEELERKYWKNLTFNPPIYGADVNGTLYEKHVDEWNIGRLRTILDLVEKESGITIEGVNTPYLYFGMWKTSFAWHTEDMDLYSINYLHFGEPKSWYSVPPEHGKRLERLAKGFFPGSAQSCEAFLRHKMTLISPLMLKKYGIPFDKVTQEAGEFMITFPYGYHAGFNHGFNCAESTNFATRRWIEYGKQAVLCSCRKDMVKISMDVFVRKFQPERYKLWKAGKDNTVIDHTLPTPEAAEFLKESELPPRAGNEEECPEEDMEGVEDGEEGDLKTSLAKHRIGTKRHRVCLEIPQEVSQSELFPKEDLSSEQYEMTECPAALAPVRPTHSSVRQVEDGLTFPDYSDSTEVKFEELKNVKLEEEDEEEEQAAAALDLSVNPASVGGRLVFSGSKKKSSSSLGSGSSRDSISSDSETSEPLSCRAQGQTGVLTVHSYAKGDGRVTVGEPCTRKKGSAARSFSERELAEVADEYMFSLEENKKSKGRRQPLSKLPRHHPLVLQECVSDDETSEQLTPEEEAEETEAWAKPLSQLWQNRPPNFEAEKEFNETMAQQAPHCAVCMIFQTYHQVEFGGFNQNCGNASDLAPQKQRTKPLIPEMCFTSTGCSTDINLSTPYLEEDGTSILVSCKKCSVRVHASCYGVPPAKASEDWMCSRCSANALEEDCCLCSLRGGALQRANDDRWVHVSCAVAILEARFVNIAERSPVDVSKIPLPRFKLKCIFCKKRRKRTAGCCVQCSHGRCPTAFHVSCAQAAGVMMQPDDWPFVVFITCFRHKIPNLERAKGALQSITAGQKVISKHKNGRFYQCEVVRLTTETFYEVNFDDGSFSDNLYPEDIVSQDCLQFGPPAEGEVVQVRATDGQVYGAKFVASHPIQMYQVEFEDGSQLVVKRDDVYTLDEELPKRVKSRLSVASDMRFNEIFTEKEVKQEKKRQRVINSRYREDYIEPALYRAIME

[3] = molecular target: T3, Lysine-specific demethylase 4A (Homo sapiens) (UniProt O75164); assay: Inhibition of NanoLuc-KDM4A-TUDOR domain (unknown origin) binding to Histone H3.3-HaloTag expressed in 293T cells incubated for 18 hrs by Nano-BRET based target engagement assay; assay type: cell-based
T3 sequence (whole entry): T2 sequence (whole entry) with A967W

Compound: CN(C)C[C@H]1C2CCC(c3ccccc3)(C2)[C@H]1O (stereo partly drawn)
- Kd [1]: Not Active
- Activity [2]: inactive
- inhibition [3]: Dose-dependent effect
